A word on the melting point: it is the temperature, or range, at which the solid turns liquid. For `COC(=O)c1ccc(-c2nc(NCc3ccc(OC)c(Cl)c3)c3c(n2)sc2ccccc23)cc1` [Example 3, methyl 4-[4-(3-chloro-4-methoxybenzylamino)-[1]benzothieno[2,3-d]pyrimidin-2-yl]benzoate], the melting point fell in the range of 203 to 204 °C.

`COc1ccc(CNc2nc(CCC(=O)O)nc3sc4ccccc4c23)cc1Cl` [Example 2, 3-[4-(3-chloro-4-methoxybenzylamino)benzothieno[2,3-d]pyrimidin-2-yl]propionic acid] yielded a melting point of 218 °C.

The values are drawn from patent US6495557B1, “Condensed thienopyrimidines with phosphodiesterase-v inhibiting action” (Merck Patent Gesellschaft mit beschraenkter Haftung, priority 1998, dated 2002).
